Experimental data reported in the Kinase Knowledgebase extract (Sharma et al. 2016).

Biological target: MAPK14 (human) (UniProt Q16539)
Experiment: Inhibition of MAPK14 Kinase Activity by PHAS-I Assay
Conditions: for inhibition: concentration not given here

MAPK14 (human), sequence (Q16539 whole entry, looked up): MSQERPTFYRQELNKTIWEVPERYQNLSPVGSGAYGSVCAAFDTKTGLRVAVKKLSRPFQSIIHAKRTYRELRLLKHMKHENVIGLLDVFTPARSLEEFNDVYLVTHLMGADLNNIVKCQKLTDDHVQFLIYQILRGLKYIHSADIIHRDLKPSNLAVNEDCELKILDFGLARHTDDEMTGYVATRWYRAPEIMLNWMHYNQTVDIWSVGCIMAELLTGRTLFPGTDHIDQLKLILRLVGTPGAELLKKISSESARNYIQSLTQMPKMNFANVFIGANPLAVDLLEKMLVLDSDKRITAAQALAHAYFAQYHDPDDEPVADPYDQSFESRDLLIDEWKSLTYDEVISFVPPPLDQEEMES

| SMILES | inhibition | IC50 |
| --- | --- | --- |
| O=S(=O)(NCc1[nH]nc(-c2ccc(F)cc2)c1-c1ccncc1)c1cccc2cccnc12 | 73% |  |
| Cc1ccc(C(=O)NCCCc2[nH]nc(-c3ccc(F)cc3)c2-c2ccncc2)cc1 | 86% |  |
| Cc1c(-c2ccncc2)c(-c2ccc(F)cc2)nn1CC(=O)Nc1ccccc1Cl | 90% |  |
| COc1ccc(S(=O)(=O)NCCCc2[nH]nc(-c3ccc(F)cc3)c2-c2ccncc2)cc1 | 71% |  |
| Cc1c(-c2ccncc2)c(-c2ccc(F)cc2)nn1CC(=O)Nc1ccc(C2CCCCC2)cc1 | 87% |  |
| C=CCOC(=O)NCCc1[nH]nc(-c2ccc(F)cc2)c1-c1ccncc1 | 86% |  |
| Cc1c(-c2ccncc2)c(-c2ccc(F)cc2)nn1CC(=O)Nc1ccccc1C(=O)NC(C)c1ccccc1 (stereo not drawn) | 86% |  |
| Cc1c(-c2ccncc2)c(-c2ccc(F)cc2)nn1CC(=O)NC(C)c1ccc(Br)cc1 (stereo not drawn) | 71% |  |
| CC(C)C(=O)NCCc1[nH]nc(-c2ccc(F)cc2)c1-c1ccncc1 | 75% |  |
| N#CCNc1[nH]nc(-c2ccc(F)cc2)c1-c1ccncc1 |  | 0.017 µM |
| O=C(N[C@H](Cc1ccccc1)c1[nH]nc(-c2ccc(F)cc2)c1-c1ccncc1)c1cnc2ccccc2n1 |  | 38.1 µM |
| CCN1CCN(C(=O)Cn2nc(-c3ccc(F)cc3)c(-c3ccncc3)c2C)CC1 | 65% |  |
| CN(C(=O)NCCCc1[nH]nc(-c2ccc(F)cc2)c1-c1ccncc1)c1ccccc1 | 76% |  |
| Cc1c(-c2ccncc2)c(-c2ccc(F)cc2)nn1CC(=O)Nc1ccc(CSc2ccc(Cl)cc2)cc1 | 67% |  |
| Cc1ccc(C)c(C(=O)c2ccccc2NC(=O)Cn2nc(-c3ccc(F)cc3)c(-c3ccncc3)c2C)c1 | 84% |  |
| Cc1c(-c2ccncc2)c(-c2ccc(F)cc2)nn1CC(=O)N1CCSC1 | 63% |  |
| CC(C)OC(=O)NCCc1[nH]nc(-c2ccc(F)cc2)c1-c1ccncc1 | 85% |  |
| Cc1c(-c2ccncc2)c(-c2ccc(F)cc2)nn1CC(=O)NC1CC1 | 75% |  |
| Cc1c(-c2ccncc2)c(-c2ccc(F)cc2)nn1CC(=O)Nc1ccccc1F | 86% |  |

| SMILES | inhibition | IC50 |
| --- | --- | --- |
| COC(=O)C(NC(=O)Cn1nc(-c2ccc(F)cc2)c(-c2ccncc2)c1C)C(C)C (stereo not drawn) | 82% |  |
| Cc1c(-c2ccncc2)c(-c2ccc(F)cc2)nn1CC(=O)N(C)Cc1ccccc1 | 73% |  |
| Cc1c(-c2ccncc2)c(-c2ccc(F)cc2)nn1CC(=O)Nc1cc(F)cc(F)c1 | 75% |  |
| Cc1c(-c2ccncc2)c(-c2ccc(F)cc2)nn1CC(=O)NC1CCN(CCc2c[nH]c3ccccc23)CC1 | 84% |  |
| O=C(Nc1ccccc1F)N[C@H](Cc1ccccc1)c1[nH]nc(-c2ccc(F)cc2)c1-c1ccncc1 |  | 21 µM |
| Cc1c(-c2ccncc2)c(-c2ccc(F)cc2)nn1CC(=O)N(CCC#N)CC1CCCO1 (stereo not drawn) | 58% |  |
| O=S(=O)(Cc1ccccc1)NCCCc1[nH]nc(-c2ccc(F)cc2)c1-c1ccncc1 | 87% |  |
| CCCOC(=O)NCCc1[nH]nc(-c2ccc(F)cc2)c1-c1ccncc1 | 78% |  |
| Cc1ccc(S(=O)(=O)NCCCc2[nH]nc(-c3ccc(F)cc3)c2-c2ccncc2)cc1 | 68% |  |
| CCN1CC(NC(=O)Cn2nc(-c3ccc(F)cc3)c(-c3ccncc3)c2C)CN1CC | 47% |  |
| Cc1c(-c2ccncc2)c(-c2ccc(F)cc2)nn1CC(=O)Nc1ccccc1C(C)(C)C | 84% |  |
| Cc1c(-c2ccncc2)c(-c2ccc(F)cc2)nn1CC(=O)Nc1ccc(Cl)nc1 | 94% |  |
| CCN(Cc1c(F)cccc1Cl)C(=O)Cn1nc(-c2ccc(F)cc2)c(-c2ccncc2)c1C | 46% |  |
| Cc1c(-c2ccncc2)c(-c2ccc(F)cc2)nn1CC(=O)Nc1ccc(Cl)cc1 | 88% |  |
| CCCc1n[nH]c(-c2cccc([N+](=O)[O-])c2)c1-c1ccncc1 |  | 12.1 µM |
| O=S(=O)(NCCCc1[nH]nc(-c2ccc(F)cc2)c1-c1ccncc1)c1ccccc1F | 77% |  |
| COCC(C)NC(=O)Cn1nc(-c2ccc(F)cc2)c(-c2ccncc2)c1C (stereo not drawn) | 60% |  |
| COc1cccc(CC(=O)NCCCc2[nH]nc(-c3ccc(F)cc3)c2-c2ccncc2)c1 | 92% |  |
| Cc1c(-c2ccncc2)c(-c2ccc(F)cc2)nn1CC(=O)NC1Cc2ccccc2C1 | 69% |  |
